Literature values in patent publication US20030008014A1, “Truncated apolipoprotein B-containing lipoprotein particles for delivery of compounds to tissues or cells” (priority 2001, published 2003).

Assays:
breast tumor xenografts = conditions: two 10 mg/kg injections on days 1 and 4

SMILES	solubility in phospholipid disks [mole %]	inhibition of tumor growth (breast tumor xenografts)
CC(C)CCC[C@@H](C)[C@H]1CC[C@H]2[C@@H]3CC=C4C[C@@H](O)CC[C@]4(C)[C@H]3CC[C@]12C [Free cholesterol, cholesterol]	~30	–
CC(=O)O[C@H]1C(=O)[C@@]2(C)[C@H]([C@H](OC(=O)c3ccccc3)[C@]3(O)C[C@H](OC(=O)[C@H](O)[C@@H](NC(=O)c4ccccc4)c4ccccc4)C(C)=C1C3(C)C)[C@]1(OC(C)=O)CO[C@@H]1C[C@@H]2O [paclitaxel]	–	maximal inhibition of tumor growth
